The test system of data set [1] is IL-1β. Kind of data set: THP-1 AlphaLISA IL-1β cytokine assay (differentiated THP-1 cells). The format is cell-based. As to conditions: Homo sapiens. A digest of the protocol: (§1)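 PMA-differentiated THP-1 cells were preincubated 30 min with compound, stimulated with LPS for 24 h, then nigericin for 1 h, all at 37 °C. Supernatant IL-1β and IL-6 were quantified by AlphaLISA. % inhibition is normalised to +LPS and −LPS controls per cytokine.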
In general terms: Alpha assays give light when donor and acceptor beads are brought close together.

Data set [2] deals with IL-6. Kind of data set: THP-1 AlphaLISA IL-6 cytokine assay (differentiated THP-1 cells). Type of data set: cell-based. As to conditions: Homo sapiens. The method, boiled down:
as §1

Data set [3] in a line: Hepatocyte stability assay, mouse. The note with it: mouse, hepatocytes, T½. The format is in vitro ADME. The method, boiled down:
(§2)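 Cryopreserved hepatocytes at 0.5×10^6 cells/mL in Leibovitz buffer, 37 °C, with 10 μM compound (0.1% DMSO), duplicate. Samples at 0-60 min, acetonitrile quench, LC-MS/MS; intrinsic clearance and half-life from ln % remaining versus time, with buffer-only incubations as control.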

The test system of data set [4] is cryo-preserved hepatocytes. Nature of the data set: Hepatocyte stability assay, mouse. Type of data set: in vitro ADME. As to conditions: mouse, hepatocytes. The method, boiled down:
as §2

Data set [5] is described as follows: Hepatocyte stability assay, human. Type of data set: in vitro ADME. As to conditions: human, hepatocytes, T½. A digest of the protocol: as §2
Data set [6] has as its system cryo-preserved hepatocytes. Nature of the data set: Hepatocyte stability assay, human. The format is in vitro ADME. The note with it: human, hepatocytes. A digest of the protocol:
as §2

The test system of data set [7] is NRF2 (nuclear factor erythroid 2-related factor 2). Kind of data set: NRF2 +/-GSH activation assay (DiscoverX PathHunter NRF2 translocation kit, U2OS cells). The format is cell-based. The note with it: Homo sapiens; for Emax: U2OS, normalised to dimethyl fumarate high control; for pEC50: U2OS PathHunter cells, 6 hours.
Where [8] appears, read: THP-1, differentiated THP-1 cells, LPS 24 hr then Nigericin 1 hour, read-out: IL-1β (IC50).
[9] abbreviates: THP-1, differentiated THP-1 cells, LPS 24 hr then Nigericin 1 hour, read-out: IL-6 (IC50).

Molecules are shown by their SMILES. pEC50, pIC50: −log10 of the molar value. Read-outs that look alike come from different tables or passages of the source.

As usually defined, the pIC50 is the IC50 on a negative log10 scale, so that one unit is a factor of ten. The term half-life denotes how long it takes for the measured level to halve. For orientation: Emax means the greatest response seen or fitted, relative to the assay's reference. In general, pEC50 refers to the EC50 on a negative log10 scale, so that one unit is a factor of ten. For the compound `C=C(CC(=O)NC1(c2ccc(C(F)(F)F)cc2)CCC1)C(=O)O` [Example 5, 2-methylene-4-oxo-4-((1-(4-(trifluoromethyl)phenyl)cyclobutyl)amino)butanoic acid], the pIC50 was 5.43 in data set [1] (setting [8]); 5.25 in data set [1] (THP-1, differentiated THP-1 cells, footnote a: data from repeated experiments, read-out: IL-1β (IC50), data from repeated experiments); less than 4.25 in data set [2] (setting [9]). Also, the half-life at 10 μM in data set [3] is 450 min; in data set [5], more than 460 min. The Clint in data set [4] is 3 μL min^−1 10^−6 cells; in data set [6], less than 3 μL min^−1 10^−6 cells. Also, the Emax in data set [7] (+GSH, read-out: NRF2 activation Emax, +GSH) was 0%; in data set [7] (−GSH, read-out: NRF2 activation Emax, −GSH) it was 17%. The pEC50 was less than 4.00 in data set [7] (+GSH, read-out: NRF2 activation EC50, +GSH) and less than 4.00 in data set [7] (−GSH, read-out: NRF2 activation EC50, −GSH).
For the compound `C=C(CC(=O)N[C@@H](C)c1ccc(C(F)(F)F)cc1)C(=O)OC1(C)COC1` [Example 28, 3-methyloxetan-3-yl (S)-2-methylene-4-oxo-4-((1-(4-(trifluoromethyl)phenyl)ethyl)amino)butanoate], the pIC50 is 4.98 in data set [1] (THP-1, read-out: IL-1β (IC50)) and 5.25 in data set [2] (THP-1, read-out: IL-6 (IC50)). Besides, the half-life at 10 μM in data set [3] is less than 3 min; in data set [5], 18 min. Further, the figures for the Clint in data set [4] and in data set [6] were more than 460 μL min^−1 10^−6 cells and 80 μL min^−1 10^−6 cells, respectively.
Regarding `C=C(CC(=O)N[C@@H](C)c1ccc(C(F)(F)F)cn1)C(=O)O` [Example 30, (S)-2-methylene-4-oxo-4-((1-(5-(trifluoromethyl)pyridin-2-yl)ethyl)amino) butanoic acid], the pIC50 is 5.04 in data set [1] (setting [8]) and less than 4.00 in data set [2] (setting [9]). For the same compound, the half-life at 10 μM in data set [3] and in data set [5] was more than 460 min each time. In addition, the Clint in data set [4] and in data set [6] was less than 3 μL min^−1 10^−6 cells each time.
Consider `C=C(CC(=O)N[C@@H](C)c1ccc(C(F)(F)F)cn1)C(=O)OC1CS(=O)(=O)C1` [Example 33, 1,1-dioxidothietan-3-yl (S)-2-methylene-4-oxo-4-((1-(5-(trifluoromethyl)pyridin-2-yl)ethyl)amino)butanoate], for which the pIC50 is 5.74 in data set [1] (setting [8]) and 5.44 in data set [2] (setting [9]). Moreover, the figures for the half-life at 10 μM in data set [3] and in data set [5] were 10 min and 11 min, respectively. In addition, the Clint stood at 205 μL min^−1 10^−6 cells in data set [4] and 151 μL min^−1 10^−6 cells in data set [6].
As for `C=C(CC(=O)NC1(c2ccc(C(F)(F)F)cn2)CCC1)C(=O)O` [Example 39, 2-methylene-4-oxo-4-((1-(5-(trifluoromethyl)pyridin-2-yl)cyclobutyl)amino) butanoic acid], the negative-log IC50 (pIC50) is 4.81 in data set [1] (setting [8]) and less than 4.00 in data set [2] (setting [9]). In addition, the half-life at 10 μM in data set [3] and in data set [5] was more than 460 min in each case. Also, the Clint in data set [4] and in data set [6] was less than 3 μL min^−1 10^−6 cells each time.
On to `C=C(CC(=O)NC1CCc2cc(C(F)(F)F)ccc21)C(=O)O` (centres unmarked) [Example 40, 2-methylene-4-oxo-4-((5-(trifluoromethyl)-2,3-dihydro-1H-inden-1-yl)amino) butanoic acid], for which the pIC50 in data set [1] (setting [8]) is 4.57; in data set [2] (setting [9]), less than 4.00. The half-life at 10 μM in data set [3] and in data set [5] was more than 460 min throughout. In addition, the Clint in data set [4] and in data set [6] was less than 3 μL min^−1 10^−6 cells each time.
With `C/C=C(/CC(=O)N[C@@H](C)c1ccc(C(F)(F)F)cc1)C(=O)O` [Example 41, (S,Z)-2-(2-oxo-2-((1-(4-(trifluoromethyl)phenyl)ethyl)amino)ethyl)but-2-enoic acid], the pIC50 was 4.61 in data set [1] (THP-1, read-out: IL-1β (IC50)) and less than 4.50 in data set [2] (THP-1, read-out: IL-6 (IC50)). Besides, the half-life at 10 μM in data set [3] and in data set [5] was more than 460 min in each case. Moreover, the Clint in data set [4] and in data set [6] was less than 3 μL min^−1 10^−6 cells throughout.
In the case of `CC(C)C/C=C(\CC(=O)N[C@@H](C)c1ccc(C(F)(F)F)cc1)C(=O)O` [Example 45, (S,E)-5-methyl-2-(2-oxo-2-((1-(4-(trifluoromethyl)phenyl)ethyl)amino)ethyl)hex-2-enoic acid], the negative logarithm of the IC50 (pIC50) in data set [1] (setting [8]) was 5.68; in data set [2] (setting [9]), less than 4.50. The half-life at 10 μM was 47.6 min in data set [3] and 230 min in data set [5]. In addition, the Clint in data set [4] is given as 30 μL min^−1 10^−6 cells; in data set [6], 8 μL min^−1 10^−6 cells.
On to `C[C@H](NC(=O)C/C(=C\c1ccccc1)C(=O)O)c1ccc(C(F)(F)F)cc1` [Example 47, (S,E)-2-benzylidene-4-oxo-4-((1-(4-(trifluoromethyl)phenyl)ethyl)amino)butanoic acid], for which the pIC50 in data set [1] (setting [8]) and in data set [2] (setting [9]) was less than 4.00 in each case. In addition, the half-life at 10 μM in data set [3] was 132 min; in data set [5], more than 460 min. In addition, the figures for the Clint in data set [4] and in data set [6] were 12 μL min^−1 10^−6 cells and less than 3 μL min^−1 10^−6 cells, respectively.
As for `C[C@H](NC(=O)C/C(=C/c1ccccc1)C(=O)O)c1ccc(C(F)(F)F)cc1` [Example 48, (S,Z)-2-benzylidene-4-oxo-4-((1-(4-(trifluoromethyl)phenyl)ethyl)amino)butanoic acid], the figures for the pIC50 in data set [1] (setting [8]) and in data set [2] (setting [9]) were 5.64 and less than 4.00, respectively. Also, the half-life at 10 μM in data set [3] amounted to 16 min; in data set [5], 224 min. In addition, the Clint in data set [4] stood at 95 μL min^−1 10^−6 cells; in data set [6], 7 μL min^−1 10^−6 cells.
Consider `C[C@H](NC(=O)C/C(=C\CN(C)C)C(=O)O)c1ccc(C(F)(F)F)cc1` [Example 49, (S,E)-4-(dimethylamino)-2-(2-oxo-2-((1-(4-(trifluoromethyl)phenyl)ethyl)amino)ethyl)but-2-enoic acid], for which the pIC50 was 4.78 in data set [1] (THP-1, read-out: IL-1β (IC50)) and less than 4.00 in data set [2] (THP-1, read-out: IL-6 (IC50)). Besides, the half-life at 10 μM in data set [3] and in data set [5] was more than 460 min in each case. For the same compound, the Clint in data set [4] and in data set [6] was less than 3 μL min^−1 10^−6 cells each time.
Turning to `C=C(C(=O)O)C(C)(C)C(=O)N[C@@H](C)c1ccc(C(F)(F)F)cc1` [Example 50, (S)-3,3-dimethyl-2-methylene-4-oxo-4-((1-(4-(trifluoromethyl)phenyl)ethyl)amino)butanoic acid], the pIC50 is 5.96 in data set [1] (setting [8]) and less than 4.00 in data set [2] (setting [9]). The half-life at 10 μM is 104 min in data set [3] and more than 460 min in data set [5]. The Clint in data set [4] is recorded as 13 μL min^−1 10^−6 cells; in data set [6], less than 3 μL min^−1 10^−6 cells.
With `C=C(CC(=O)N[C@@H](C)c1ccc(S(F)(F)(F)(F)F)cc1)C(=O)O` [Example 56, (S)-2-methylene-4-oxo-4-((1-(4-(pentafluoro-A6-sulfaneyl)phenyl)ethyl)amino)butanoic acid], the pIC50 in data set [1] (setting [8]) was 5.48; in data set [2] (setting [9]), less than 4.00. In addition, the results for the half-life at 10 μM in data set [3] and in data set [5] were 166 min and more than 460 min, respectively. Further, the results for the Clint in data set [4] and in data set [6] were 11 μL min^−1 10^−6 cells and less than 3 μL min^−1 10^−6 cells, respectively.

(Values after US20240245691A1 (Sitryx Therapeutics Limited, priority 2021, published 2024).)
